Key:
[1] = tested on: AIM2 inflammasome pathway; test: In vitro screening: cytokine production via AIM2 inflammasome pathway; assay type: cell-based
[2] = tested on: NLRC4 inflammasome pathway; test: In vitro screening: cytokine production via NLRC4 inflammasome pathway; assay type: cell-based
pro-IL-1 = test: In vitro screening: inhibition of pro-IL-1; assay type: cell-based
Method: (§1) To investigate potential off-target activity of dapansutrile, secondary pharmacological effects were assessed through in vitro screening assays. […] An evaluation of 68 critical transmembrane and soluble receptors, ion channels and monoamine transporters were performed for off-target effects of dapansutrile. An additional 69 receptors and enzymes were evaluated with dapansutrile for potential activity in a follow-on study that focused on enzymes involved in inflammatory cascades. A single identified target, the PDE4 enzyme, was inhibited in a concentration range of ≥100 μM (13 μg/mL) and was dose-responsive for effect, but subsequent studies were not conclusive.

pro-IL-18 = test: In vitro screening: inhibition of pro-IL-18; assay type: cell-based
Method: as §1

PDE4 enzyme = test: Off-target screening: PDE4 enzyme inhibition; assay type: biochemical
Method: as §1

COX-1 = COX-1 (Homo sapiens, UniProt P23219); test: Off-target screening: COX-1; assay type: biochemical; details: screening assay
Chain of COX-1 (P23219 24-599): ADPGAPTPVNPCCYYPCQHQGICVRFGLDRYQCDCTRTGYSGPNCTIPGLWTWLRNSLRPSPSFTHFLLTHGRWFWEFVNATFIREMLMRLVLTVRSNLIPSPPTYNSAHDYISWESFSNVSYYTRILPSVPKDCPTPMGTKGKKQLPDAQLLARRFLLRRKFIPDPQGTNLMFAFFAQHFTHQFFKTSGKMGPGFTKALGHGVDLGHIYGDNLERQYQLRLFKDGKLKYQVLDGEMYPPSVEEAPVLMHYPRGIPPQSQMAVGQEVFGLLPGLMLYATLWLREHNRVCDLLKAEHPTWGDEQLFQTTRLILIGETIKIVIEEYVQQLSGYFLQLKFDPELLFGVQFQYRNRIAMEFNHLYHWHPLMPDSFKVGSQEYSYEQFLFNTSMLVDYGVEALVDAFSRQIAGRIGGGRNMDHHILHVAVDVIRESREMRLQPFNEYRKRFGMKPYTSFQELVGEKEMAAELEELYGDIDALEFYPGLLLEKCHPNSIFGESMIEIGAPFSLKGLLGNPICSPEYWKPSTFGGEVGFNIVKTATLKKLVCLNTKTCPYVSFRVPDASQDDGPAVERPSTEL
Method: as §1

COX-2 = target: T1, COX-2 (Homo sapiens, UniProt P35354); test: Off-target screening: COX-2; assay type: biochemical; details: screening assay
T1 sequence (P35354 18-604): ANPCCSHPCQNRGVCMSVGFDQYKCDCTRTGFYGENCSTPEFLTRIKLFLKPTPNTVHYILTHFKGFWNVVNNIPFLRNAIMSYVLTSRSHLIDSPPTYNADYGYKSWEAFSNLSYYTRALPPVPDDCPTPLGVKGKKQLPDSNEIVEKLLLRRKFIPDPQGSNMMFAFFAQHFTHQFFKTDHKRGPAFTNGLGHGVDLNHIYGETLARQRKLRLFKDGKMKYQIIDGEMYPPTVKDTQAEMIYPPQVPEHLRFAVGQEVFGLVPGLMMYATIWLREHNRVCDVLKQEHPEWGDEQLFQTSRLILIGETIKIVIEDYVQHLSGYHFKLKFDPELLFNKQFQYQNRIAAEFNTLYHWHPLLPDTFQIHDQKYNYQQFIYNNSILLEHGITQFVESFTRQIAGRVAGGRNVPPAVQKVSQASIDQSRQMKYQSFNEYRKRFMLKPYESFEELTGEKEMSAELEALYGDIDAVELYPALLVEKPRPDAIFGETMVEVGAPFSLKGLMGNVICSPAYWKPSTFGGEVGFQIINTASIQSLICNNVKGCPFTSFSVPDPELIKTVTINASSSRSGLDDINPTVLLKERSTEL
Method: as §1

opioid receptors = test: Off-target screening: opioid receptors; assay type: binding; details: screening assay
Method: as §1

[3] = tested on: 68 critical transmembrane and soluble receptors, ion channels and monoamine transporters; additional 69 receptors and enzymes; test: Off-target screening panels (68 receptors, ion channels, monoamine transporters; additional 69 receptors and enzymes); details: all targets other than PDE4
Method: as §1

IL-1β challenged mice = test: IL-6 and MPO levels after IL-1β intraperitoneal challenge in treated mice (ELISA); assay type: in vivo; details: 200 mg/kg, 8 injections over 4 days
Method: Mice were treated with 200 mg/kg dapansutrile (OLT1177™) for 8 injections over 4 days. Mice were trained on a rotarod on day 3. Twelve hours after the last injection, mice were run on the rotarod for distance. One hour after the rotarod, mice were challenged with 60 ng IL-1β intraperitoneally; mice were then sacrificed 4 hours later. Whole blood, plasma, brain, and lung of the mice were collected. Whole blood was cultured, plasma was frozen. Brain was processed for cytokine analysis. Each group had N=5. Ex vivo samples were obtained from the brain of mice treated with vehicle or dapansutrile and subjected to exhaustive exercise.

APP/PS1 mice [4] = test: Cytokine levels of brain homogenates of APP/PS1 mice (ELISA); assay type: in vivo; details: 3 months, vs control food
Method: (§2) In the study design, 6-month-old wild-type (WT), and AD transgenic APP/PS1[deltaE9] mice were treated with oral dapansutrile via feed pellets ad libitum (approximately 0, 50 or 100 mg/kg/day based on feed concentrations of 0, 3.75 or 7.5 g/kg and food consumption of 4 g/day) for the treatment duration of 3 months. At 9 months old, behavior testing of the mice was performed. In addition, the brains of the mice were extracted, and blood samples were collected. The brains of the mice from each group were performed for electrophysiological and neuronal morphological analysis, cytokine levels and other assays.
One hemisphere of each mouse was homogenized in STKM-buffer and centrifuged for 10 min at 4° C. with 13,000 g. The supernatant of the brain lysate was collected and measured for pro-inflammatory mediators IL-6 and IL-1β by ELISA by diluting the sample 1:2. […] The IL-1β levels were reduced in APP/PS1 mice treated with dapansutrile at a low dose (500 mg/kg/day, p value=0.0287) and a medium dose (1000 mg/kg/day, p value=0.0368) compared to APP/PS1 mice fed with control food (FIG. 2B)

APP/PS1 mice [5] = test: Morris water maze test in APP/PS1 mice; assay type: in vivo
Method: as §2
Spatial memory formation and retention were assessed using the Morris water maze (MWM) assay. A 10 cm escape platform was submerged 1 cm below the water surface into a circular plastic pool filled up with opaque water. Three visual cues were positioned on the walls around the pool. A digital camera was installed above the center of the maze. Images will be acquired and transmitted to a PC running the tracking software ANY-maze (ANY-maze). On the first three days (pre-training) the mice were trained using a visible platform (the platform was placed above the water surface).
To assess spatial memory formation, the mice were trained to locate the hidden platform for 8 consecutive days. The escape latency of each trial (4 per day with an interval of 3-5 min) was recorded and analyzed by the tracking software. At training day 3 and at day 9, memory retention was assessed in a probe trial performed by removing the platform and analyzing the search pattern used by each mouse for a fixed time of 45 seconds.
The escape latency which describes the time mice need to find the hidden platform was measured and was analyzed as the mean value of the 4 trials each day and shown in FIG. 3A; all genotypes decreased the escape latency from day 1 to day 8. For example, on day 5, wildtype mice (N=8) needed 23.59±4.08 seconds to reach the platform. APP/PS1 (500 mg/kg/day dapansutrile treated) mice (N=5) needed 37.31±4.96 seconds, and APP/PS1 (1000 mg/kg dapansutrile treated) mice (N=6) needed 21.30±3.19 seconds (p value=0.021), compared to APP/PS1 (control food) mice (n=6) needed 42.04±6.89 seconds.
To provide the evidence for cognitive learning 24 hours after the last training session, a reverence test was performed (probe trial) on training day 9. Here, mice were tested in the water maze without the platform to escape and the time was measured in which quadrant the mice spend their time. We compare the mean time in percentage of the three non-target quadrants (NT) to the time in percentage of the target quadrant (TQ, platform was located during training period). […] Whereas there was no preference for a TQ over NT in APP/PS1 (control food) and APP/PS1 500 mg/kg/day (low dose).

[6] = tested on: APP/PS1 mice hippocampal slices, Schaffer collateral CA3 to CA1 pathway; test: Long-term potentiation (LTP) in acute hippocampal slices of APP/PS1 mice; assay type: in vivo; details: for normalized mean LTP of last 5 minutes of recording: APP/PS1 mice, 55-60 min after TBS, APP/PS1 untreated 1.303, wildtype 1.553
Method: as §2
Given the observed recovery in the impaired learning and memory processes in APP/PS1 mice treated with 1000 mg/kg/day dapansutrile (Example 5), we were interested in determining whether hippocampal network function would be recovered following medium dose of dapansutrile administration. For this purpose, we analyzed synaptic plasticity at the Schaffer collateral pathway connecting the CA3 with the CA1 subfield, one of the most extensively studied synapses in the central nervous system. Long-term potentiation (LTP) as a cellular correlation of learning processes at the Schaffer collateral CA3 to CA1 pathway was induced by theta-burst stimulation (TBS) after 20 min of baseline recording.
Acute hippocampal slices were prepared from mice in four groups including wild-type, APP/PS1, APP/PS1 treated with 500 mg/kg/day and APP/PS1 treated with 1000 mg/kg/day of dapansutrile. Briefly, mice were deeply anesthetized with 100% CO2, killed, and then brains were quickly removed and transferred into ice-cold carbogenated (95% O2 and 5% CO2) artificial CSF (ACSF) solution. Afterward, the hippocampus was dissected and transverse hippocampal slices (400 μm) were obtained using a manual tissue chopper. The hippocampal slices were transferred to an interface recording chamber, where they were incubated at 32° C. with a constant flow rate (0.5 ml/min) of carbogenated ACSF for 2 h before the start of recordings. Field excitatory post synaptic potentials (fEPSPs) were recorded in the stratum radiatum of the CA1 region in hippocampal slices. Responses were evoked by stimulation of the Schaffer collateral pathway using two electrodes. These stimulation electrodes (S1 and S2) were positioned equidistantly on both sides of the recording electrode and, by this means, two independent stimulation pathways could be used for the same CA1 recording region. For recording fEPSPs (measured as the first slope function), the recording electrode was placed in the CA1 apical dendritic layer and signals were amplified by a differential amplifier and digitized. […] The slope of fEPSPs was measured over time for 60 min and normalized to the baseline. […]

[7] = exhaustive exercise, 60 ng IL-1β i.p., 4 hours later, vs vehicle

CS(=O)(=O)CCC#N [dapansutrile, 3-Methanesulfonylpropionitrile]
inhibitory effect on cytokine production via the AIM2 inflammasome pathway [1]: no inhibitory effect
inhibitory effect on cytokine production via the NLRC4 inflammasome pathway [2]: no inhibitory effect
inhibition of pro-IL-1 (pro-IL-1): no inhibition
inhibition of pro-IL-18 (pro-IL-18): no inhibition
concentration range in which PDE4 enzyme was inhibited (PDE4 enzyme; dose-responsive, subsequent studies not conclusive): ≥ 100 µM
concentration range in which PDE4 enzyme was inhibited (PDE4 enzyme; same bound given in μg/mL): ≥ 13 µg/mL
direct effects on COX-1 (COX-1): no direct effects
direct effects on COX-2 (COX-2): no direct effects
interaction with opioid receptors (opioid receptors): no interaction
other effects in the screening assays [3]: No other effects were noted
level of systemic IL-1β after IL-1β stimulation (IL-1β challenged mice; data not shown): also reduced
level of systemic IL-6 after IL-1β stimulation (IL-1β challenged mice; data not shown): also reduced
level of systemic MPO after IL-1β stimulation (IL-1β challenged mice; data not shown): also reduced
IL-6 level in the brain (IL-1β challenged mice; [7]): reduced levels
myeloperoxidase (MPO) level in the brain (IL-1β challenged mice; [7]): reduced levels
IL-1β levels in brain lysate (APP/PS1 mice [4]; 500 mg/kg/day oral via feed, p value=0.0287): reduced
IL-6 levels in brain lysate (APP/PS1 mice [4]; 1000 mg/kg/day oral via feed, p value=0.0035): reduced
IL-1β levels in brain lysate (APP/PS1 mice [4]; 1000 mg/kg/day oral via feed, p value=0.0368): reduced
escape latency (time to reach the hidden platform) (APP/PS1 mice [5]; 500 mg/kg/day, day 5, N=5, APP/PS1 control food 42.04±6.89, wildtype 23.59±4.08): 37.31 ± 4.96 s
preference for the target quadrant (TQ) over non-target quadrants (NT), probe trial (APP/PS1 mice [5]; 500 mg/kg/day, day 9): no preference
escape latency (time to reach the hidden platform) (APP/PS1 mice [5]; 1000 mg/kg, day 5, N=6, p value=0.021, APP/PS1 control food 42.04±6.89, wildtype 23.59±4.08): 21.30 ± 3.19 s
preference for the target quadrant (TQ) over non-target quadrants (NT), probe trial (APP/PS1 mice [5]; 1000 mg/kg/day, day 9, p value=0.0001): significant preference
LTP impairment in APP/PS1 mice ([6]; 1000 mg/kg/day): rescued
normalized mean LTP of last 5 minutes of recording ([6]; low dose (500 mg/kg/day), N=2, n=8): 1.198
normalized mean LTP of last 5 minutes of recording ([6]; medium dose (1000 mg/kg/day), N=1, n=7): 1.469
LTP deficit in APP/PS1 mice ([6]; low dose, 500 mg/kg/day): not able to improve
